pIC50: −log10 of the molar value.
Target: HSP90 (Homo sapiens, UniProt P07900)
Experiment: HSP90 inhibition (HSP90 IC50)
Type: biochemical

| Structure (SMILES) | pIC50 |
| --- | --- |
| CC[C@@H](C)Nc1c(C(N)=O)cc(C)c(C(=O)NC2CC3CCC(C2)N3c2ccc(C(=O)C3CC3)cn2)c1Cl (stereo partly drawn) [3-chloro-N4-{8-[5-(cyclopropylcarbonyl)pyridin-2-yl]-8-azabicyclo[3.2.1]oct-3-endo-yl}-5-methyl-2-{[(1R)-1-methylpropyl]amino}benzene-1,4-dicarboxamide] | > 6.30 |
| Cc1cc(OC(N)=O)ccc1C(=O)N[C@H]1C[C@H]2CC[C@@H](C1)N2c1ccc(C(=O)NCc2ccccc2)cn1 [3-methyl-4-({[8-(5-{[(phenylmethyl)amino]carbonyl}pyridin-2-yl)-8-azabicyclo[3.2.1]oct-3-endo-yl]amino}carbonyl)phenyl carbamate] | 5.00 to 5.70 |
| Cc1cc(C(N)=O)c(NC2CCC2)cc1C(=O)N[C@H]1C[C@H]2CC[C@@H](C1)N2c1ccc(C(=O)C2CC2)cn1 [5-(cyclobutylamino)-N-{8-[5-(cyclopropylcarbonyl)pyridin-2-yl]-8-azabicyclo[3.2.1]oct-3-endo-yl}-2-methylbenzene-1,4-dicarboxamide] | > 6.30 |
| Cc1cc(C(N)=O)c(NC2CCCC2)cc1C(=O)N[C@H]1C[C@H]2CC[C@@H](C1)N2c1ccc(C(=O)C2CC2)cn1 [5-(cyclopentylamino)-N-{8-[5-(cyclopropylcarbonyl)pyridin-2-yl]-8-azabicyclo[3.2.1]oct-3-endo-yl}-2-methylbenzene-1,4-dicarboxamide] | > 6.30 |
| CCC(CC)Nc1cc(C(=O)N[C@H]2C[C@H]3CC[C@@H](C2)N3c2ccc(C(=O)CCC3CCN(C)CC3)cn2)c(C)cc1C(N)=O [5-[(1-ethylpropyl)amino]-2-methyl-N-(8-{5-[3-(1-methylpiperidin-4-yl)propanoyl]pyridin-2-yl}-8-azabicyclo[3.2.1]oct-3-endo-yl)benzene-1,4-dicarboxamide] | > 6.30 |
| CCC(CC)Nc1cc(C(=O)NC2CC3CCC(C2)N3c2ccc(C(=O)N[C@@H]3CCCN(C(C)C)C3)cn2)c(C)cc1C(N)=O (stereo partly drawn) [5-[(1-ethylpropyl)amino]-2-methyl-N-{8-[5-({[(3R)-1-(1-methylethyl)piperidin-3-yl]amino}carbonyi)pyridin-2-yl]-8-azabicyclo[3.2.1]oct-3-endo-yl}benzene-1,4-dicarboxamide] | > 6.30 |
| CCC(CC)Nc1cc(C(=O)NC2CC3CCC(C2)N3c2ccc(C(=O)N[C@@H]3CCN(C(C)C)C3)cn2)c(C)cc1C(N)=O (stereo partly drawn) [5-[(1-ethylpropyl)amino]-2-methyl-N-{8-[5-({[(3R)-1-(1-methylethyl)pyrrolidin-3-yl]amino}carbonyl)pyridin-2-yl]-8-azabicyclo[3.2.1]oct-3-endo-yl}benzene-1,4-dicarboxamide] | > 6.30 |
| CCC(CC)Nc1cc(C(=O)NC2CC3CCC(C2)N3c2ccc(C(=O)NCC3CCCN3CC)cn2)c(C)cc1C(N)=O (stereo not drawn) [5-[(1-ethylpropyl)amino]-N-{8-[5-({[(1-ethylpyrrolidin-2-yl)methyl]amino}carbonyl)pyridin-2-yl]-8-azabicyclo[3.2.1]oct-3-endo-yl}-2-methylbenzene-1,4-dicarboxamide] | > 6.30 |
| Cc1cc(C(N)=O)c(NCC2CCCC2)cc1C(=O)N[C@H]1C[C@H]2CC[C@@H](C1)N2c1ccc(C(=O)C2CC2)cn1 [5-[(cyclopentylmethyl)amino]-N-{8-[5-(cyclopropylcarbonyl)pyridin-2-yl]-8-azabicyclo[3.2.1]oct-3-endo-yl}-2-methylbenzene-1,4-dicarboxamide] | > 6.30 |
| NC(=O)c1cc(Br)c(C(=O)N[C@H]2C[C@H]3CC[C@@H](C2)N3c2ccc(C(=O)C3CC3)cn2)cc1N [5-amino-2-bromo-N-{8-[5-(cyclopropylcarbonyl)pyridin-2-yl]-8-azabicyclo[3.2.1]oct-3-endo-yl}benzene-1,4-dicarboxamide] | > 6.30 |
| Cc1cc(C(N)=O)c(N)cc1C(=O)N[C@H]1C[C@H]2CC[C@@H](C1)N2c1ccc(C(=O)C2CC2)cn1 [5-amino-N-{8-[5-(cyclopropylcarbonyl)pyridin-2-yl]-8-azabicyclo[3.2.1]oct-3-endo-yl}-2-methylbenzene-1,4-dicarboxamide] | > 6.30 |
| CC[C@@H](C)Nc1c(C(N)=O)cc(Br)c(C(=O)NC2CC3CCC(C2)N3c2ccc(C(=O)C3CC3)cn2)c1Cl (stereo partly drawn) [5-bromo-3-chloro-N4-{8-[5-(cyclopropylcarbonyl)pyridin-2-yl]-8-azabicyclo[3.2.1]oct-3-endo-yl}-2-{[(1R)-1-methylpropyl]amino}benzene-1,4-dicarboxamide] | > 6.30 |
| Cc1cccc(C(=O)N[C@H]2C[C@H]3CC[C@@H](C2)N3c2ccc(C(=O)NCc3ccccc3)cn2)c1C [6-(3-endo-{[(2,3-dimethylphenyl)carbonyl]amino}-8-azabicyclo[3.2.1]oct-8-yl)-N-(phenylmethyl)pyridine-3-carboxamide] | 5.00 to 5.70 |
| Cc1c(N)cccc1C(=O)N[C@H]1C[C@H]2CC[C@@H](C1)N2c1ccc(C(=O)NCc2ccccc2)cn1 [6-(3-endo-{[(3-amino-2-methylphenyl)carbonyl]amino}-8-azabicyclo[3.2.1]oct-8-yl)-N-(phenylmethyl)pyridine-3-carboxamide] | 5.00 to 5.70 |
| Cc1c(O)cccc1C(=O)NC1CC2CCC(C1)N2c1ccc(C(=O)NCc2ccccc2)cn1 (stereo not drawn) [6-(3-endo-{[(3-hydroxy-2-methylphenyl)carbonyl]amino}-8-azabicyclo[3.2.1]oct-8-yl)-N-(phenylmethyl)pyridine-3-carboxamide] | 5.70 to 6.00 |
| Cc1c(O)cccc1C(=O)NC1CC2CCC(C1)N2c1ccc(C(=O)N[C@@H](C)c2ccc(N3CCN(C)CC3)cc2)cn1 (stereo partly drawn) [6-(3-endo-{[(3-hydroxy-2-methylphenyl)carbonyl]amino}-8-azabicyclo[3.2.1]oct-8-yl)-N-{(1S)-1-[4-(4-methylpiperazin-1-yl)phenyl]ethyl}pyridine-3-carboxamide] | > 6.30 |
| Cc1cc(N)ccc1C(=O)N[C@H]1C[C@H]2CC[C@@H](C1)N2c1ccc(C(N)=O)cn1 [6-(3-endo-{[(4-amino-2-methylphenyl)carbonyl]amino}-8-azabicyclo[3.2.1]oct-8-yl)pyridine-3-carboxamide] | 5.00 to 5.70 |
| COc1cccc(C(=O)N[C@H]2C[C@H]3CC[C@@H](C2)N3c2ccc(C(N)=O)cn2)c1CCCCN(C)C [6-(3-endo[({2-[4-(dimethylamino)butyl]-3-(methyloxy)phenyl}carbonyl)amino]-8-azabicyclo[3.2.1]oct-8-yl}pyridine-3-carboxamide] | 5.70 to 6.00 |
| COc1cccc(C(=O)N[C@H]2C[C@H]3CC[C@@H](C2)N3c2ccc(C(=O)NCc3cccs3)cn2)c1C [6-[3-endo({[2-methyl-3-(methyloxy)phenyl]carbonyl}amino)-8-azabicyclo[3.2.1]oct-8-yl]-N-(2-thienylmethyl)pyridine-3-carboxamide] | > 6.30 |
| COc1cccc(C(=O)N[C@H]2C[C@H]3CC[C@@H](C2)N3c2ccc(C(=O)NCc3ccc(C)cc3)cn2)c1C [6-[3-endo-({(2-methyl-3-(methyloxy)phenyl]carbonyl}amino)-8-azabicyclo[3.2.1]oct-8-yl]-N-[(4-methylphenyl)methyl]pyridine-3-carboxamide] | > 6.30 |
| O=C(NCc1ccccc1)c1ccc(N2[C@@H]3CC[C@H]2C[C@@H](NC(=O)c2ccc(C(O)CO)cc2)C3)nc1 (stereo partly drawn) [6-[3-endo-({(4-(1,2-dihydroxyethyl)phenyl]carbonyl}amino)-8-azabicyclo[3.2.1]oct-8-yl]-N-(phenylmethyl)pyridine-3-carboxamide] | 5.70 to 6.00 |
| COc1cccc(C(=O)N[C@H]2C[C@H]3CC[C@@H](C2)N3c2ccc(C(N)=O)cn2)c1CC(O)CO (stereo partly drawn) [6-[3-endo-({[2-(2,3-dihydroxypropyl)-3-(methyloxy)phenyl]carbonyl}amino)-8-azabicyclo[3.2.1]oct-8-yl]pyridine-3-carboxamide] | 5.00 to 5.70 |
| COc1cccc(C(=O)N[C@H]2C[C@H]3CC[C@@H](C2)N3c2ccc(C(=O)NCc3ccccc3)cn2)c1CCCO [6-[3-endo-({[2-(3-hydroxypropyl)-3-(methyloxy)phenyl]carbonyl}amino)-8-azabicyclo[3.2.1]oct-8-yl]-N-(phenylmethyl)pyridine-3-carboxamide] | > 6.30 |
| COc1cccc(C(=O)N[C@H]2C[C@H]3CC[C@@H](C2)N3c2ccc(C(N)=O)cn2)c1CCCO [6-[3-endo-({[2-(3-hydroxypropyl)-3-(methyloxy)phenyl]carbonyl}amino)-8-azabicyclo[3.2.1]oct-8-yl]pyridine-3-carboxamide] | 5.70 to 6.00 |
| COc1cccc(C(=O)N[C@H]2C[C@H]3CC[C@@H](C2)N3c2ccc(C(N)=O)cn2)c1C#CCCO [6-[3-endo-({[2-(4-hydroxybut-1-yn-1-yl)-3-(methyloxy)phenyl]carbonyl}amino)-8-azabicyclo[3.2.1]oct-8-yl]pyridine-3-carboxamide] | 5.00 to 5.70 |
| COc1cccc(C(=O)N[C@H]2C[C@H]3CC[C@@H](C2)N3c2ccc(C(N)=O)cn2)c1CCCCO [6-[3-endo-({[2-(4-hydroxybutyl)-3-(methyloxy)phenyl]carbonyl}amino)-8-azabicyclo[3.2.1]oct-8-yl]pyridine-3-carboxamide] | 6.00 to 6.30 |
| COc1cccc(C(=O)N[C@H]2C[C@H]3CC[C@@H](C2)N3c2ccc(C(=O)NCc3ccccc3)cn2)c1Br [6-[3-endo-({[2-bromo-3-(methyloxy)phenyl]carbonyl}amino)-8-azabicyclo[3.2.1]oct-8-yl]-N-(phenylmethyl)pyridine-3-carboxamide] | 5.70 to 6.00 |
| COc1cccc(C(=O)N[C@H]2C[C@H]3CC[C@@H](C2)N3c2ccc(C(N)=O)cn2)c1Cl [6-[3-endo-({[2-chloro-3-(methyloxy)phenyl]carbonyl}amino)-8-azabicyclo[3.2.1]oct-8-yl]pyridine-3-carboxamide] | 5.00 to 5.70 |
| COc1cccc(C(=O)N[C@H]2C[C@H]3CC[C@@H](C2)N3c2ccc(C(N)=O)cn2)c1F [6-[3-endo-({[2-fluoro-3-(methyloxy)phenyl]carbonyl}amino)-8-azabicyclo[3.2.1]oct-8-yl]pyridine-3-carboxamide] | 5.00 to 5.70 |
| COc1cccc(C(=O)N[C@H]2C[C@H]3CC[C@@H](C2)N3c2ccc(C(=O)NCc3ccccc3)cn2)c1I [6-[3-endo-({[2-iodo-3-(methyloxy)phenyl]carbonyl}amino)-8-azabicyclo[3.2.1]oct-8-yl]-N-(phenylmethyl)pyridine-3-carboxamide] | 5.00 to 5.70 |

Source: patent US8012956B2, “Tropane compounds” (Exelixis, Inc., priority 2007, dated 2011)
